Assay [1] relates to ocular (retinal) neo-angiogenesis. Description: Hypoxia-induced retinal neo-angiogenesis in zebrafish. It is filed as in vivo. Conditions: hypoxia 5% oxygen 72 h, 0.25, 0.5, or 1 μM. The protocol:
All animal experiments were approved by the Experimental Animal Ethical Committee. Transgenic zebrafish embryos (fli: EGFP, blood vessels marked in GFP) were raised at 28° C. under standard experimental conditions. Zebrafish embryos at the age of 24 hpf were incubated in aquarium water containing 0.2 mmol/L 1-phenyl-2-thio-urea (PTU, Sigma). At 48-hpf, zebrafish embryos were placed for 72 h in normoxia (Nx) or hypoxia 5% oxygen […], in the presence of treatment. Retinal neo-angiogenesis was analyzed by fluorescent confocal microscope and quantified by ImageJ.

In the next assay the test system is ARPE-19 cells. Description: Cell viability (XTT assay). The class given is cell-based. Conditions: Homo sapiens, 48 h, read-out: A. Safety IC50 on ARPE-19 cells. The protocol: ARPE-19 cells were incubated in a 96-well plate with different effectors for 48 hours. Fifty microliters of sodium 3′-[1-phenylaminocarbonyl)-3,4-tetrazolium]-bis(4-methoxy-6-nitro) benzene sulfonic acid hydrate (XTT) reagent was added to each well. The test is based on the cleavage of the yellow tetrazolium salt XTT to form an orange formazan dye by metabolically active cells. This bio-reduction occurs in viable cells only and is associated with NAD(P)H production through glycolysis. Therefore, the amount of formazan dye measured at 490 nm, correlates directly with the number of metabolically active cells reflecting cell proliferation, viability, and cytotoxicity. Each assay was performed in quadruplicate.
(§1) All compounds were evaluated in different experiments. Results are represented as the mean of three independent experiments. A. ARPE-19 cells were treated with dose response of compound for 48 h. Values are reported as IC50 measured with the XTT assay. B and C. ARPE-19 cells were treated with 5 μM (B) or 1 μM (C) compound then with 200 μM H2O2 for 2 h. ROS were analyzed by cytometry. […] As illustrated in FIG. 1A. D. ARPE-19 cells were treated with 2.5 μM compound for 48 h and the level of CXCL1 mRNA was evaluated by qPCR. […] As illustrated in FIG. 1B. E. TIME cells were pre-treated with 2.5 μM compound for 1 h then stimulated with 100 ng/ml CXCL8 for 15 min p-ERK levels were analyzed by immunoblotting. HSP90 served as loading control. […] As illustrated in FIG. 1C.
A general note: Tetrazolium dyes change colour on reduction, which living cells bring about.

In a further assay the test system is ROS. The assay is described as follows: ROS labeling by cytometry after H2O2. The class given is cell-based. Conditions: Homo sapiens, ARPE-19; for inhibition at 1 µM: 1 μM compound then 200 μM H2O2 for 2 h, read-out: C. ROS inhibition 1 μM - ARPE-19 cells; for inhibition at 5 µM: 5 μM compound then 200 μM H2O2 for 2 h, read-out: B. ROS inhibition 5 μM - ARPE-19 cells. Here is the method:
ARPE-19 cells were treated with MCK349 30 minutes then with 200 μM H2O2 for 2 h. 10 μM DCF-DA (2′,7′-Dichlorofluorescein diacetate) were added on cell media for 30 min. Cells were rinsed then detached (trypsin) and resuspended in PBS 0.5% BSA and 2 mM EDTA. The cells are analyzed by cytometry (ROS labeled with DCFDA-FITC).
as §1

The subject of the next assay is ERK activation (p-ERK). Description: p-ERK immunoblotting after CXCL8 stimulation. It is filed as cell-based. The conditions noted are these: 2.5 μM compound 1 h then 100 ng/ml CXCL8 for 15 min; read-out: E. p-ERK inhibition - TIME. Here is the method: Cells were lysed in buffer containing 3% SDS, 10% glycerol and 0.825 mM Na2HPO4. 30 to 50 μg of proteins separated on 10% SDS-PAGE, transferred onto a PVDF membrane and then exposed to the appropriate antibodies. Proteins were visualized with the ECL system using horseradish peroxidase-conjugated anti-rabbit or anti-mouse antibodies.
as §1

Molecules are shown by their SMILES. pIC50: −log10 of the molar value. “Also recorded” adds a separate entry of the source. Where only a bound is given, the exact number is not on record here.

The pIC50 is the IC50 on a negative log10 scale, so that one unit is a factor of ten. Broadly, the inhibition is how much of the control response was suppressed. As for `Nc1nc(Nc2ccc(Cl)cc2)nn1Cc1cccc(Br)c1` [MCK344, 1-(3-bromobenzyl)-N^3-(4-chlorophenyl)-1H-1,2,4-triazole-3,5-diamine], in assay [1], the “ocular (retinal) neo-angiogenesis in zebrafish” value is recorded as “inhibit ocular (retinal) neo-angiogenesis; also recorded: inhibit ocular neoangiogenesis”. In the assay with ARPE-19 cells, the pIC50 is < 4.60. Further, in the assay on ROS, the inhibition at 1 µM is ≥ 50% and the inhibition at 5 µM is ≥ 50%. Further, in the assay with ERK activation (p-ERK), the inhibition at 2.5 µM was ≥ 50%.
With `Nc1nc(Nc2ccccn2)nn1Cc1cccc([N+](=O)[O-])c1` [MCK292, 1-(3-nitrobenzyl)-N^3-(pyridin-2-yl)-1H-1,2,4-triazole-3,5-diamine], the pIC50 in the assay with ARPE-19 cells was < 4.60. Moreover, in the assay with ROS, the inhibition at 1 µM was < 50% and the inhibition at 5 µM was < 50%. The inhibition at 2.5 µM with ERK activation (p-ERK) was ≥ 50%.
Consider `Cc1ccccc1Cn1nc(Nc2ccccn2)nc1N` [MCK269, 1-(2-methylbenzyl)-N^3-(pyridin-2-yl)-1H-1,2,4-triazole-3,5-diamine], for which the pIC50 in the assay with ARPE-19 cells is < 4.60. Moreover, in the assay on ROS, the inhibition at 1 µM was ≥ 50% and the inhibition at 5 µM is ≥ 50%. For the same compound, in the assay on ERK activation (p-ERK), the inhibition at 2.5 µM was ≥ 50%.
Regarding `Nc1nc(Nc2ccccc2)nn1CC(=O)c1ccccc1` [MCK299, 2-(5-amino-3-(phenylamino)-1H-1,2,4-triazol-1-yl)-1-phenylethan-1-one], in the assay with ARPE-19 cells, the pIC50 is < 4.60. In the assay with ROS, the inhibition at 1 µM is < 50% and the inhibition at 5 µM was < 50%. For the same compound, the inhibition at 2.5 µM in the assay with ERK activation (p-ERK) is ≥ 50%.
Consider `Nc1nc(Nc2ccc(Cl)cc2)n(Cc2cccc(Br)c2)n1` [MCK343, 1-(3-bromobenzyl)-N^5-(4-chlorophenyl)-1H-1,2,4-triazole-3,5-diamine], for which the pIC50 in the assay on ARPE-19 cells was < 4.60. Also, in the assay with ROS, the inhibition at 1 µM was < 50% and the inhibition at 5 µM is ≥ 50%. Besides, the inhibition at 2.5 µM in the assay with ERK activation (p-ERK) was ≥ 50%.
With `COc1cccc(Cn2nc(N)nc2Nc2ccccc2)c1` [MCK260, 1-(3-methoxybenzyl)-N^5-phenyl-1H-1,2,4-triazole-3,5-diamine], the pIC50 in the assay with ARPE-19 cells was < 4.60. Moreover, in the assay with ROS, the inhibition at 1 µM is ≥ 50% and the inhibition at 5 µM is ≥ 50%. Also, in the assay on ERK activation (p-ERK), the inhibition at 2.5 µM is ≥ 50%.
As to `Nc1nc(Nc2ccccn2)nn1Cc1cccc(C(F)(F)F)c1` [MCK282, N^3-(pyridin-2-yl)-1-(3-(trifluoromethyl)benzyl)-1H-1,2,4-triazole-3,5-diamine], in the assay with ARPE-19 cells, the pIC50 was < 4.60. For the same compound, in the assay on ROS, the inhibition at 1 µM was < 50% and the inhibition at 5 µM was < 50%. Further, the inhibition at 2.5 µM in the assay with ERK activation (p-ERK) was ≥ 50%.
On to `Nc1nc(Nc2ccccc2)n(Cc2cccc(C(F)(F)F)c2)n1` [MCK338, N^5-phenyl-1-(3-(trifluoromethyl)benzyl)-1H-1,2,4-triazole-3,5-diamine], for which, in the assay with ARPE-19 cells, the pIC50 is < 4.60. Moreover, in the assay on ROS, the inhibition at 1 µM is ≥ 50% and the inhibition at 5 µM was ≥ 50%. The inhibition at 2.5 µM with ERK activation (p-ERK) was < 50%.
With `Nc1nc(Nc2ccccc2)n(CCc2ccccc2)n1` [MCK300, 1-phenethyl-N^5-phenyl-1H-1,2,4-triazole-3,5-diamine], the pIC50 in the assay on ARPE-19 cells was < 4.60. For the same compound, in the assay on ROS, the inhibition at 1 µM was < 50% and the inhibition at 5 µM is < 50%. In the assay on ERK activation (p-ERK), the inhibition at 2.5 µM is ≥ 50%.
As to `Nc1nc(Nc2ccccn2)nn1Cc1cc(F)cc(F)c1` [MCK283, 1-(3,5-difluorobenzyl)-N^3-(pyridin-2-yl)-1H-1,2,4-triazole-3,5-diamine], in the assay with ARPE-19 cells, the pIC50 is < 4.60. Besides, in the assay with ROS, the inhibition at 1 µM was < 50% and the inhibition at 5 µM is < 50%. In addition, the inhibition at 2.5 µM in the assay on ERK activation (p-ERK) was ≥ 50%.
Turning to `Nc1nc(Nc2ccccc2)nn1Cc1ccccc1[N+](=O)[O-]` [MCK297, 1-(2-nitrobenzyl)-N^3-phenyl-1H-1,2,4-triazole-3,5-diamine], the pIC50 in the assay with ARPE-19 cells was < 4.60. Moreover, in the assay on ROS, the inhibition at 1 µM was < 50% and the inhibition at 5 µM was < 50%. For the same compound, in the assay with ERK activation (p-ERK), the inhibition at 2.5 µM is ≥ 50%.
As to `CC(C)c1ccc(Cn2nc(N)nc2Nc2ccccc2)cc1` [MCK262, 1-(4-isopropylbenzyl)-N^5-phenyl-1H-1,2,4-triazole-3,5-diamine], in the assay on ARPE-19 cells, the pIC50 was < 4.60. In the assay with ROS, the inhibition at 1 µM was ≥ 50% and the inhibition at 5 µM is ≥ 50%. In addition, the inhibition at 2.5 µM with ERK activation (p-ERK) is ≥ 50%.
`Nc1nc(Nc2ccccc2)nn1Cc1cc(F)cc(F)c1` [MCK274, 1-(3,5-difluorobenzyl)-N^3-phenyl-1H-1,2,4-triazole-3,5-diamine]: the pIC50 in the assay on ARPE-19 cells was < 4.60. In addition, in the assay on ROS, the inhibition at 1 µM was ≥ 50% and the inhibition at 5 µM was ≥ 50%. Besides, in the assay on ERK activation (p-ERK), the inhibition at 2.5 µM is < 50%.
`Cc1ccc(Nc2nc(N)nn2Cc2cccc(Br)c2)cc1` [MCK341, 1-(3-bromobenzyl)-N^5-(4-methylphenyl)-1H-1,2,4-triazole-3,5-diamine]: the pIC50 with ARPE-19 cells was < 4.60. Further, in the assay on ROS, the inhibition at 1 µM is ≥ 50% and the inhibition at 5 µM is ≥ 50%. Moreover, the inhibition at 2.5 µM in the assay with ERK activation (p-ERK) is < 50%.
Take `Nc1nc(Nc2ccccn2)nn1Cc1ccc([N+](=O)[O-])cc1` [MCK290, 1-(4-nitrobenzyl)-N^3-(pyridin-2-yl)-1H-1,2,4-triazole-3,5-diamine]: the pIC50 in the assay with ARPE-19 cells was < 4.60. Besides, in the assay with ROS, the inhibition at 1 µM is ≥ 50% and the inhibition at 5 µM was ≥ 50%. For the same compound, the inhibition at 2.5 µM in the assay on ERK activation (p-ERK) was ≥ 50%.
Turning to `Nc1nc(Nc2ccccn2)nn1Cc1ccc(F)cc1F` [MCK284, 1-(2,4-difluorobenzyl)-N^3-(pyridin-2-yl)-1H-1,2,4-triazole-3,5-diamine], the pIC50 in the assay on ARPE-19 cells was < 4.60. Besides, in the assay on ROS, the inhibition at 1 µM was < 50% and the inhibition at 5 µM is < 50%. In addition, the inhibition at 2.5 µM with ERK activation (p-ERK) is ≥ 50%.
`Nc1nc(Nc2ccccc2)n(Cc2ccccc2)n1` [MCK248, 1-benzyl-N^5-phenyl-1H-1,2,4-triazole-3,5-diamine]: the pIC50 with ARPE-19 cells was < 4.60. Besides, in the assay with ROS, the inhibition at 1 µM was < 50% and the inhibition at 5 µM is ≥ 50%. In the assay with ERK activation (p-ERK), the inhibition at 2.5 µM is < 50%.
For `Nc1nc(Nc2cccnc2)nn1Cc1ccccc1` [MCK254, 1-benzyl-N^3-(pyridin-3-yl)-1H-1,2,4-triazole-3,5-diamine], in the assay on ARPE-19 cells, the pIC50 is < 4.60. Also, in the assay on ROS, the inhibition at 1 µM is < 50% and the inhibition at 5 µM is < 50%. For the same compound, the inhibition at 2.5 µM in the assay on ERK activation (p-ERK) is < 50%.
As to `Nc1nc(Nc2cccnc2)nn1Cc1cccc(Br)c1` [MCK351, 1-(3-bromobenzyl)-N^3-(pyridin-3-yl)-1H-1,2,4-triazole-3,5-diamine], the pIC50 in the assay with ARPE-19 cells was < 4.60. In addition, in the assay with ROS, the inhibition at 1 µM is < 50% and the inhibition at 5 µM was < 50%. Also, the inhibition at 2.5 µM with ERK activation (p-ERK) was ≥ 50%.
For `COC(=O)c1ccc(Nc2nc(N)n(Cc3cccc(Br)c3)n2)cc1` [MCK348, methyl-4-((5-amino-1-(3-bromobenzyl)-1H-1,2,4-triazol-3-yl)amino)benzoate], the pIC50 in the assay with ARPE-19 cells is < 4.60. Besides, in the assay with ROS, the inhibition at 1 µM was ≥ 50% and the inhibition at 5 µM is ≥ 50%. In the assay on ERK activation (p-ERK), the inhibition at 2.5 µM was ≥ 50%.
For the compound `Nc1nc(Nc2ccccc2)nn1Cc1c(Cl)cccc1Cl` [MCK268, 1-(2,6-dichlorobenzyl)-N^3-phenyl-1H-1,2,4-triazole-3,5-diamine], the pIC50 with ARPE-19 cells is < 4.60. For the same compound, in the assay with ROS, the inhibition at 1 µM was < 50% and the inhibition at 5 µM is ≥ 50%. For the same compound, in the assay on ERK activation (p-ERK), the inhibition at 2.5 µM was ≥ 50%.
Take `Cc1ccc(Cn2nc(Nc3ccccn3)nc2N)cc1` [MCK279, 1-(4-methylbenzyl)-N^3-(pyridin-2-yl)-1H-1,2,4-triazole-3,5-diamine]: the pIC50 with ARPE-19 cells is < 4.60. Further, in the assay with ROS, the inhibition at 1 µM was < 50% and the inhibition at 5 µM was < 50%. For the same compound, in the assay on ERK activation (p-ERK), the inhibition at 2.5 µM is ≥ 50%.
Turning to `Nc1nc(Nc2ccccc2)nn1Cc1cccc([N+](=O)[O-])c1` [MCK275], the pIC50 in the assay with ARPE-19 cells was < 4.60. Also, in the assay with ROS, the inhibition at 1 µM is ≥ 50% and the inhibition at 5 µM was ≥ 50%. Also, the inhibition at 2.5 µM with ERK activation (p-ERK) is < 50%.

The values are drawn from patent US20260284014A1, “3,5-DIAMINOTRIAZOLE DERIVATIVES AND USES THEREOF FOR TREATING OCULAR DISEASES” (CENTRE NATIONAL DE LA RECHERCHE SCIENTIFIQUE, priority 2023, published 2026).
